One compound from patent US8357833B2, “Corn plants and seed enhanced for asparagine and protein” (priority 2007, dated 2013) can be followed below.

Assay [1] deals with T1, Zea mays asparagine synthetase Zm AsnS3 (SEQ ID NO: 6, encoded by SEQ ID NO: 5) (Zea mays, UniProt B5U8J8).
T1 construct: 588 aa
T1 sequence (B5U8J8 1-588): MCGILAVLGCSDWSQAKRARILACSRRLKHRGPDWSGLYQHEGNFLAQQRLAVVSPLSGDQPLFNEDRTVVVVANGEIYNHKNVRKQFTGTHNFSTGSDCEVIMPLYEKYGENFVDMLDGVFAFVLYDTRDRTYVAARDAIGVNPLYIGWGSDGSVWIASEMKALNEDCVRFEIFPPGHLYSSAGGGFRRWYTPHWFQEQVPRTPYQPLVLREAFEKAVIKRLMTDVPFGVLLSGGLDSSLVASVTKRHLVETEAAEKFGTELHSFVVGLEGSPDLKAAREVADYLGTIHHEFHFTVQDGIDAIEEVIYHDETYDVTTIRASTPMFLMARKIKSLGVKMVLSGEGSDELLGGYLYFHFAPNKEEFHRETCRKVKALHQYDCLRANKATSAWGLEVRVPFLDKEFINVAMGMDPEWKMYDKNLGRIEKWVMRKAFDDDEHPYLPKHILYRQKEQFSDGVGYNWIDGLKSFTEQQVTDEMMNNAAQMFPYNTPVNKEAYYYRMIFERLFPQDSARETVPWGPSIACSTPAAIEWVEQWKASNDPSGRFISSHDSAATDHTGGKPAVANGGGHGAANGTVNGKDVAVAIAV
Briefly: Kinetics of recombinant his-tagged, refolded maize asparagine synthetase AsnS3 (substrate titration, asparagine by HPLC). In kind it is biochemical. Particulars: 100 mM Hepes, pH 8.0, 10 mM MgCl2, read-out: Km(NH4^+). How it is done:
(§1) The effect of expression of asparagine synthetase genes on asparagine synthetase activity was measured in transgenic events of pMON79706 and pMON92870. Frozen, ground leaf tissue was aliquoted (200-400 mg) into wells from a precooled 96 deep-well plate. Protein was extracted in Buffer A (100 mM Hepes-OH, pH 8.0, 0.1 mM EDTA, 10 mM MgCl2, 2 mM aspartate, 0.5 mM DTT, 67 mM mercaptoethanol, 20% (v/v) glycerol, 0.1 mM ATP, 1% (v/v) P9599 (Sigma Company), 25 mM KCl). A small amount of sand was added to each well. Buffer A was then added to the leaf tissue in the wells at a ratio of 4:1 (buffer:tissue). The plates were then agitated in a paint shaker for 2 min. to mix the sample and then centrifuged at 5000×g for 10 minutes. The supernatant (100-200 μL) was desalted in a 96-well macro spin plate (SNS S025L, The Nest Group Inc., Southboro, Mass.) equilibrated in buffer A. The supernatant was then either assayed immediately or frozen in liquid nitrogen and maintained at −80° C. until used. […] The mixture was then filtered to remove precipitate and asparagine was measured by HPLC. […]

The target of assay [2] is T2, Zea mays asparagine synthetase Zm AsnS2 (SEQ ID NO: 4, encoded by SEQ ID NO: 3) (Zea mays, UniProt B5U8J7).
T2 construct: 606 aa
T2 sequence (B5U8J7 1-606): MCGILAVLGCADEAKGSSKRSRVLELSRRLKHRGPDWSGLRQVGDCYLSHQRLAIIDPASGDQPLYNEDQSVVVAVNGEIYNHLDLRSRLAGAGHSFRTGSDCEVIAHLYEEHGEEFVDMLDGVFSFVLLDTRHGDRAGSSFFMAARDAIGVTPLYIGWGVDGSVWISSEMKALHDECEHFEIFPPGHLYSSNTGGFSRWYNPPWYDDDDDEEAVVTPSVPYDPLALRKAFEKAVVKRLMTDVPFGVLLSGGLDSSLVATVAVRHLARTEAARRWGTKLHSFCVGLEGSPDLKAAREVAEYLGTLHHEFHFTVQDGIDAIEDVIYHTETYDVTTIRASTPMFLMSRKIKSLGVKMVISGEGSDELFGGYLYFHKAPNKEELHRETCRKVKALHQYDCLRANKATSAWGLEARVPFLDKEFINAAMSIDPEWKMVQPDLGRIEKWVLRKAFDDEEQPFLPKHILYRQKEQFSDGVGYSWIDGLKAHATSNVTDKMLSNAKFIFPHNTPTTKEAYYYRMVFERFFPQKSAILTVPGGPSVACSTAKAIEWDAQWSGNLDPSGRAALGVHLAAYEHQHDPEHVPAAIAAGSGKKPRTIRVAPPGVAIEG
The assay can be described thus: Kinetics of recombinant his-tagged, refolded maize asparagine synthetase AsnS2 (substrate titration, asparagine by HPLC). In kind it is biochemical. The note with it: Zm AsnS2; 100 mM Hepes, pH 8.0, 10 mM MgCl2; read-out: Km(NH4^+). Here is the method:
as §1

In the case of `N` [NH4^+], the values for the Km in assay [1] and in assay [2] were 8.4 mM and 750 µM, respectively.
